For two compounds, mutagenic call results are on record in PubChem BioAssay AID1259407 (Chemical Carcinogenesis Research Information System (CCRIS), 2018).

In the series the test system is CCRIS mutagenicity, Ames/micronucleus/aberration tests. Briefly: CCRIS mutagenicity studies.
Where [1] appears, read: Test System: AMES SALMONELLA TYPHIMURIUM, Strain/Indicator: TA102, Metabolic Activation: NONE, Method: PREINCUBATION

The source made the active and inactive calls. How the calls were made is not given here.

For `O=Cc1ccco1`, the mutagenic call (Test System: AMES SALMONELLA TYPHIMURIUM, Strain/Indicator: TA97, Metabolic Activation: NONE, Method: PREINCUBATION) is “inactive; negative”; the mutagenic call (Test System: AMES SALMONELLA TYPHIMURIUM, Strain/Indicator: TA97, Metabolic Activation: RAT, LIVER, S-9, AROCLOR 1254, Method: PREINCUBATION) is “inactive; negative”; the mutagenic call (Test System: AMES SALMONELLA TYPHIMURIUM, Strain/Indicator: TA98, Metabolic Activation: HAMSTER, LIVER, S-9, AROCLOR 1254 (10%), Method: PREINCUBATION) was “inactive; negative”; the mutagenic call (Test System: AMES SALMONELLA TYPHIMURIUM, Strain/Indicator: TA98, Metabolic Activation: HAMSTER, LIVER, S-9, AROCLOR 1254, Method: PREINCUBATION) is “inactive; negative”; the mutagenic call (Test System: AMES SALMONELLA TYPHIMURIUM, Strain/Indicator: TA98, Metabolic Activation: NONE, Method: STANDARD PLATE) is “inactive; negative”; the mutagenic call (Test System: AMES SALMONELLA TYPHIMURIUM, Strain/Indicator: TA98, Metabolic Activation: RAT LIVER S-9, PHENOBARBITAL AND BETA-NAPHTHOFLAVONE, Method: PREINCUBATION) is “inactive; negative”. In addition, the mutagenic call is “inactive; negative” (Test System: AMES SALMONELLA TYPHIMURIUM, Strain/Indicator: TA98, Metabolic Activation: RAT, LIVER, S-9, AROCLOR 1254 (10%), Method: PREINCUBATION); “inactive; negative” (Test System: AMES SALMONELLA TYPHIMURIUM, Strain/Indicator: TA98, Metabolic Activation: RAT, LIVER, S-9, AROCLOR 1254, Method: PREINCUBATION); “inactive; negative” (Test System: AMES SALMONELLA TYPHIMURIUM, Strain/Indicator: TA98, Metabolic Activation: S-9, Method: STANDARD PLATE); “inactive; negative” (Test System: AMES SALMONELLA TYPHIMURIUM, Strain/Indicator: TA100, Metabolic Activation: HAMSTER, LIVER, S-9, AROCLOR 1254 (10%), Method: PREINCUBATION); “inactive; negative” (Test System: AMES SALMONELLA TYPHIMURIUM, Strain/Indicator: TA100, Metabolic Activation: HAMSTER, LIVER, S-9, AROCLOR 1254, Method: PREINCUBATION); “inactive; negative” (Test System: AMES SALMONELLA TYPHIMURIUM, Strain/Indicator: TA100, Metabolic Activation: NONE, Method: STANDARD PLATE). In addition, the mutagenic call runs as follows: (Test System: AMES SALMONELLA TYPHIMURIUM, Strain/Indicator: TA100, Metabolic Activation: RAT LIVER S-9, AROCLOR 1254, Method: PREINCUBATION) “inactive; negative”; (Test System: AMES SALMONELLA TYPHIMURIUM, Strain/Indicator: TA100, Metabolic Activation: RAT LIVER S-9, PHENOBARBITAL AND BETA-NAPHTHOFLAVONE, Method: PREINCUBATION) “inactive; negative”; (Test System: AMES SALMONELLA TYPHIMURIUM, Strain/Indicator: TA100, Metabolic Activation: RAT, LIVER, S-9, AROCLOR 1254 (10%), Method: PREINCUBATION) “inactive; negative”; (Test System: AMES SALMONELLA TYPHIMURIUM, Strain/Indicator: TA100, Metabolic Activation: RAT, LIVER, S-9, AROCLOR 1254, Method: PREINCUBATION) “inactive; negative”; (Test System: AMES SALMONELLA TYPHIMURIUM, Strain/Indicator: TA100, Metabolic Activation: RAT, LIVER, S-9, AROCLOR 1254, Method: STANDARD PLATE) “active; positive”; (Test System: AMES SALMONELLA TYPHIMURIUM, Strain/Indicator: TA102, Metabolic Activation: MOUSE LIVER S-9, AROCLOR 1254, Method: PREINCUBATION) “inactive; negative”. The mutagenic call runs as follows: under setting [1], “inactive; negative”; (Test System: AMES SALMONELLA TYPHIMURIUM, Strain/Indicator: TA102, Metabolic Activation: RAT, LIVER, S-9, AROCLOR 1254, Method: PREINCUBATION) “inactive; negative”; (Test System: AMES SALMONELLA TYPHIMURIUM, Strain/Indicator: TA104, Metabolic Activation: MOUSE LIVER S-9, AROCLOR 1254, Method: PREINCUBATION) “inactive; negative”; (Test System: AMES SALMONELLA TYPHIMURIUM, Strain/Indicator: TA1535, Metabolic Activation: HAMSTER, LIVER, S-9, AROCLOR 1254 (10%), Method: PREINCUBATION) “inactive; negative”; (Test System: AMES SALMONELLA TYPHIMURIUM, Strain/Indicator: TA1535, Metabolic Activation: HAMSTER, LIVER, S-9, AROCLOR 1254, Method: PREINCUBATION) “inactive; negative”; (Test System: AMES SALMONELLA TYPHIMURIUM, Strain/Indicator: TA1535, Metabolic Activation: NONE, Method: PREINCUBATION) “inactive; negative”. The mutagenic call was “inactive; negative” (Test System: AMES SALMONELLA TYPHIMURIUM, Strain/Indicator: TA1535, Metabolic Activation: RAT LIVER S-9, PHENOBARBITAL AND BETA-NAPHTHOFLAVONE, Method: PREINCUBATION); “inactive; negative” (Test System: AMES SALMONELLA TYPHIMURIUM, Strain/Indicator: TA1535, Metabolic Activation: RAT, LIVER, S-9, AROCLOR 1254 (10%), Method: PREINCUBATION); “inactive; negative” (Test System: AMES SALMONELLA TYPHIMURIUM, Strain/Indicator: TA1535, Metabolic Activation: RAT, LIVER, S-9, AROCLOR 1254, Method: PREINCUBATION); “inactive; negative” (Test System: AMES SALMONELLA TYPHIMURIUM, Strain/Indicator: TA1537, Metabolic Activation: HAMSTER, LIVER, S-9, AROCLOR 1254 (10%), Method: PREINCUBATION); “inactive; negative” (Test System: AMES SALMONELLA TYPHIMURIUM, Strain/Indicator: TA1537, Metabolic Activation: HAMSTER, LIVER, S-9, AROCLOR 1254, Method: PREINCUBATION); “inactive; negative” (Test System: AMES SALMONELLA TYPHIMURIUM, Strain/Indicator: TA1537, Metabolic Activation: NONE, Method: PREINCUBATION). The mutagenic call is “inactive; negative” (Test System: AMES SALMONELLA TYPHIMURIUM, Strain/Indicator: TA1537, Metabolic Activation: RAT LIVER S-9, PHENOBARBITAL AND BETA-NAPHTHOFLAVONE, Method: PREINCUBATION); “inactive; negative” (Test System: AMES SALMONELLA TYPHIMURIUM, Strain/Indicator: TA1537, Metabolic Activation: RAT, LIVER, S-9, AROCLOR 1254 (10%), Method: PREINCUBATION); “inactive; negative” (Test System: AMES SALMONELLA TYPHIMURIUM, Strain/Indicator: TA1537, Metabolic Activation: RAT, LIVER, S-9, AROCLOR 1254, Method: PREINCUBATION); “inactive; negative” (Test System: E.COLI, Strain/Indicator: WP2UVRA, Metabolic Activation: NONE, Method: PREINCUBATION); “inactive; negative” (Test System: E.COLI, Strain/Indicator: WP2UVRA, Metabolic Activation: RAT LIVER S-9, PHENOBARBITAL AND BETA-NAPHTHOFLAVONE, Method: PREINCUBATION); “active; positive” (Test System: MOUSE LYMPHOMA, Strain/Indicator: L5178Y (TK+/TK-), Metabolic Activation: NONE, Method: SUSPENSION/PLATE).

Turning to `CC[N+](=O)[O-]`, the mutagenic call reads like this: (Test System: AMES SALMONELLA TYPHIMURIUM, Strain/Indicator: TA98, Metabolic Activation: NONE, Method: PREINCUBATION) “inactive; negative”; (Test System: AMES SALMONELLA TYPHIMURIUM, Strain/Indicator: TA98, Metabolic Activation: RAT, LIVER, S-9, KANECHLOR 500, Method: PREINCUBATION) “inactive; negative”; (Test System: AMES SALMONELLA TYPHIMURIUM, Strain/Indicator: TA100, Metabolic Activation: NONE, Method: PREINCUBATION) “inactive; negative”; (Test System: AMES SALMONELLA TYPHIMURIUM, Strain/Indicator: TA100, Metabolic Activation: RAT, LIVER, S-9, KANECHLOR 500, Method: PREINCUBATION) “inactive; negative”; under setting [1], “inactive; negative”; (Test System: E. COLI, Strain/Indicator: WP2 UVRA (PKM101), Metabolic Activation: NONE, Method: PREINCUBATION) “inactive; negative”. Besides, under “Test System: E. COLI, Strain/Indicator: WP2 UVRA (PKM101), Metabolic Activation: RAT, LIVER, S-9, KANECHLOR 500, Method: PREINCUBATION”, the mutagenic call was “inactive; negative”.
